Laboratory results from US11078183B2, “Tetrahydrate of H3 ligand, its process of preparation and pharmaceutical compositions comprising the same” (BIOPROJET, priority 2017, dated 2021).
Structures can show the parent of a compound that is named as a salt. Where two headings read alike, the source gives them in different places.

Assays:
histamine H3 = histamine H3 (Homo sapiens, UniProt Q9Y5N1); settings: among the H3 ligands disclosed in WO 2006/117609; cited from earlier work
[1] = Stability studies according to ICH (purity on anhydrous substance over time); assay type: physicochemical; settings: for purity on anhydrous substance: specifications 98.0-102.0%; for degradation observed (in words): up to 6 months
Protocol: Stability studies have been performed according to ICH.
Similar results were obtained for the 3 months sample at 30° C./65% relative humidity:
Stability has been assessed under ICH conditions.

[2] = Hygroscopy: water content over storage time; assay type: physicochemical
Source text: This compound is hygroscopic. It uptakes water during time.

[3] = Degradation on drying (main impurity over drying time); assay type: physicochemical; settings: for Main impurity: drying at 60° C.
Protocol: Drying was not complete at 60° C. over 24 hours.

[4] = as above; assay type: physicochemical
[5] = 40° C./75% relative humidity, 0 months
[6] = 40° C./75% relative humidity, 1 month
[7] = 40° C./75% relative humidity, 3 months
[8] = 40° C./75% relative humidity, 6 months

Chain of histamine H3 (Q9Y5N1 whole entry): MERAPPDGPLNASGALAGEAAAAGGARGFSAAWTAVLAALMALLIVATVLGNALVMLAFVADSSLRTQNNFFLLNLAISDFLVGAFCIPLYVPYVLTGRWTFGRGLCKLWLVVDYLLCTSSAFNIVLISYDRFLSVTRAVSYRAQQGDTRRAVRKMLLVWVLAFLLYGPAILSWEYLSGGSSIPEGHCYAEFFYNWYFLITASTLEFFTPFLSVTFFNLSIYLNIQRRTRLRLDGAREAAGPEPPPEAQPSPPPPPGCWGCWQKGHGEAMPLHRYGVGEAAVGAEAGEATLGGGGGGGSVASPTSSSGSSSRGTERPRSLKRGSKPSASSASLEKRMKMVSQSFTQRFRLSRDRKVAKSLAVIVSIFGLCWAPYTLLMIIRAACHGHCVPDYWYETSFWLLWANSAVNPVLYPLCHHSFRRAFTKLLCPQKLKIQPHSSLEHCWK

## C[C@H]1CCCN(CCCOc2ccc(-c3cc[n+]([O-])cc3)cc2)C1 [(3S)-4-{4-[3-(3-methylpiperidin-1-yl)propoxy]phenyl}pyridine 1-oxide]
Histamine H3
  potency as H3 ligand (in words): very potent

## C[C@H]1CCCN(CCCOc2ccc(-c3cc[n+]([O-])cc3)cc2)C1 [Example 1, (3S)-4-{4-[3-(3-methylpiperidin-1-yl)propoxy]phenyl}pyridine 1-oxide, dihydrochloride, tetrahydrate]
[1]; [5]
  purity on anhydrous substance: 99.6
[1]; [6]
  purity on anhydrous substance: 100.3
[1]; [7]
  purity on anhydrous substance: 99.7
[1]; [8]
  purity on anhydrous substance: 100.3
[1]; 40° C./75% relative humidity
  degradation observed (in words): no degradation is observed
[2]
  hygroscopicity (in words): not hygroscopic
[2]; [5]
  water content: 16 % in weight
[2]; [6]
  water content: 16 % in weight
[2]; [7]
  water content: 15 % in weight
[2]; [8]
  water content: 16 % in weight
[2]; 40° C./75% relative humidity, 12 months
  water content: 15 % in weight
[2]; 40° C./75% relative humidity, up to 12 months
  water content modification (in words): no water content modification is observed

## C[C@H]1CCCN(CCCOc2ccc(-c3cc[n+]([O-])cc3)cc2)C1 [Example 52 of WO 2006/117609, (3S)-4-{4-[3-(3-methylpiperidin-1-yl)propoxy]phenyl}pyridine 1-oxide, dihydrochloride]
[3]; drying at 60° C. over 24 hours
  completeness of drying (in words): not complete
[3]; 0 hr
  Main impurity: 0.08%
[3]; 8 hr
  Main impurity: 0.08%
[3]; 12 hr
  Main impurity: 0.08%
[3]; 24 hr
  Main impurity: 0.10%
[4]; drying at 80° C. or 100° C., complete removal of water
  outcome of drying (in words): some decomposition occurred
[4]; drying at 80° C., 0 hr
  Main impurity: 0.08%
[4]; drying at 80° C., 8 hr
  Main impurity: 0.11%
[4]; drying at 80° C., 16 hr
  Main impurity: 0.12%
[4]; drying at 80° C., 24 hr
  Main impurity: 0.14%
[4]; drying at 100° C., 0 hr
  Main impurity: 0.08%
[4]; drying at 100° C., 8 hr
  Main impurity: 0.32%
[4]; drying at 100° C., 16 hr
  Main impurity: 0.44%
[1]; 30° C./65% relative humidity, 0 months
  purity on anhydrous substance: 100.2
[1]; 30° C./65% relative humidity, 3 months
  purity on anhydrous substance: 98.4
[1]; 40° C./75% relative humidity, 0 months, dihydrochloride
  purity on anhydrous substance: 100.2
[1]; 40° C./75% relative humidity, 1 month, dihydrochloride
  purity on anhydrous substance: 100.8
[1]; 40° C./75% relative humidity, 3 months, dihydrochloride
  purity on anhydrous substance: 98.2
[1]; 40° C./75% relative humidity, 6 months, dihydrochloride
  purity on anhydrous substance: 98.4
[1]; 40° C./75% relative humidity, dihydrochloride
  degradation observed (in words): some degradation is observed
[1]; within six months, 40° C./75% relative humidity
  loss of purity: 2%
[2]; batch stored under Good Manufacturing Practice, 0 months
  water content: 1 % in weight
[2]; batch stored under Good Manufacturing Practice, 6 months
  water content: 2 % in weight
[2]; batch stored under Good Manufacturing Practice, 11 months
  water content: 4 % in weight
[2]; dihydrochloride
  hygroscopicity (in words): hygroscopic
[2]; listed as dihydrochloride salt, dihydrochloride
  hygroscopicity (in words): too hygroscopic
